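Dose response: 5 concentrations. Exposure: 48 h. Format: 96-well plates. Endpoint: linear interpolation; highest concentration if not reached. Abbreviation: GI50, concentration required for 50% inhibition of growth.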 Calls of active or inactive are those of the source. No stated cut-off is given here; in the data, active = GI50 up to about 1.1 µM and inactive = higher.
Assays:
Experiment in all cases: NCI tumour cell line growth inhibition, 48 h
[1] = test system: CAKI-1
[2] = test system: DU-145
[3] = test system: EKVX
[4] = test system: HCC 2998
[5] = test system: HT-29
[6] = test system: NCI-H522
[7] = test system: OVCAR-3
[8] = test system: OVCAR-5
[9] = test system: OVCAR-8
[10] = test system: PC-3
[11] = test system: SF-268
[12] = test system: SK-OV-3
[13] = test system: SNB-19
[14] = test system: UACC-257
[15] = test system: HOP-92
[16] = test system: K562
[17] = test system: RPMI-8226
[18] = test system: SR
[19] = test system: SW-620

SMILES	GI50 [1]	GI50 [2]	GI50 [3]	GI50 [4]	GI50 [5]	GI50 [6]	GI50 [7]	GI50 [8]	GI50 [9]	GI50 [10]	GI50 [11]	GI50 [12]	GI50 [13]	GI50 [14]	GI50 [15]	GI50 [16]	GI50 [17]	GI50 [18]	GI50 [19]
NC(=O)C1Cc2cc3c(cc21)OCO3 (stereo not drawn)	> 100 µM (inactive)	> 100 µM (inactive)	> 100 µM (inactive)	> 100 µM (inactive)	> 100 µM (inactive)	> 100 µM (inactive)	> 100 µM (inactive)	> 100 µM (inactive)	> 100 µM (inactive)	> 100 µM (inactive)	> 100 µM (inactive)	> 100 µM (inactive)	> 100 µM (inactive)	> 100 µM (inactive)					
Cc1nnc([C@@]2(C)CC[C@H]3[C@@H](CC=C4C[C@@H](O)CC[C@@]43C)[C@@H]2CC#N)o1	> 100 µM (inactive)		> 100 µM (inactive)		> 100 µM (inactive)	22.5 µM (inactive)	> 100 µM (inactive)	> 100 µM (inactive)	> 100 µM (inactive)	> 100 µM (inactive)	> 100 µM (inactive)	> 100 µM (inactive)	> 100 µM (inactive)	97.5 µM (inactive)	> 100 µM (inactive)	> 100 µM (inactive)	97.3 µM (inactive)	> 100 µM (inactive)	> 100 µM (inactive)
COc1ccc(NCn2nc(CCCCCCCCc3nn(CNc4ccc(OC)cc4)c(=S)o3)oc2=S)cc1	> 100 µM (inactive)	> 100 µM (inactive)	> 100 µM (inactive)	> 100 µM (inactive)	> 100 µM (inactive)	> 100 µM (inactive)		> 100 µM (inactive)		> 100 µM (inactive)	> 100 µM (inactive)	> 100 µM (inactive)	> 100 µM (inactive)	> 100 µM (inactive)	> 100 µM (inactive)	> 100 µM (inactive)	> 100 µM (inactive)		> 100 µM (inactive)
C/C=C(/CCC1NCCC2c3ccccc3NC12)[Si](C)(C)C (stereo not drawn)	10.8 µM (inactive)		14.4 µM (inactive)	2.02 µM (inactive)	2.83 µM (inactive)	16 µM (inactive)	11.4 µM (inactive)	7.28 µM (inactive)	7.98 µM (inactive)		9.31 µM (inactive)	15.7 µM (inactive)	15.5 µM (inactive)	4.38 µM (inactive)	5.58 µM (inactive)	2.75 µM (inactive)	2.84 µM (inactive)	2.9 µM (inactive)	3.02 µM (inactive)
O=C(CCN1CCCCC1CCO)Nc1ccc2c(c1)C(=O)c1ccc(NC(=O)CCN3CCCCC3CCO)cc1C2=O (stereo not drawn)	23.7 µM (inactive)		7.41 µM (inactive)	0.0418 µM (active)	5.52 µM (inactive)	2.16 µM (inactive)	2.37 µM (inactive)	17.7 µM (inactive)	3.73 µM (inactive)		4.88 µM (inactive)	5.12 µM (inactive)	6.07 µM (inactive)	5.33 µM (inactive)	13.2 µM (inactive)	3.85 µM (inactive)	4.45 µM (inactive)	4.14 µM (inactive)	2.12 µM (inactive)
CCCCCC[C@H]1CC(=O)C2CCCC[C@@]23CC[C@H](CCl)N13.CCCCCC[C@H]1CC(=O)C2CCCC[C@@]23C[C@H](Cl)CN13 (stereo partly drawn)	58.9 µM (inactive)	61 µM (inactive)	49.9 µM (inactive)	> 100 µM (inactive)	61.9 µM (inactive)	17.9 µM (inactive)	25.1 µM (inactive)	> 100 µM (inactive)	25.4 µM (inactive)	23.3 µM (inactive)	65.2 µM (inactive)	> 100 µM (inactive)	37.9 µM (inactive)	43 µM (inactive)	24.2 µM (inactive)	28.6 µM (inactive)	20.7 µM (inactive)		

Source: ChEMBL document CHEMBL1201862, “PubChem BioAssay data set” (2004)
